Data as given in patent US10988478B1, “Pyrazolo[1,5a]pyrimidine derivatives as IRAK4 modulators” (Genentech, Inc., priority 2015, dated 2021).

These molecules were tested against human IRAK4 (Homo sapiens (Human), UniProt Q9NWZ3) (assay: IRAK4 kinase inhibition, Transcreener fluorescence polarization ADP assay). Settings: recombinant full-length His6-IRAK4; 125 uM ATP; 90 min; Ki computed using ATP Km 642 uM.
Format: biochemical
Protocol: Compounds were assayed for inhibition of human IRAK4 and IRAK1 catalytic activity using recombinant enzyme produced from insect cells. Full-length IRAK4 protein, carrying an N-terminal His6-Tag, was obtained from Life Technologies (Carlsbad, Calif., USA). The IRAK1 construct was produced internally and was comprised of IRAK1 residues Arg194 to Ser712, preceded by an NH2-terminal His6 tag and the coding sequence for glutathione-S-transferase.

human IRAK4, sequence (Q9NWZ3 whole entry): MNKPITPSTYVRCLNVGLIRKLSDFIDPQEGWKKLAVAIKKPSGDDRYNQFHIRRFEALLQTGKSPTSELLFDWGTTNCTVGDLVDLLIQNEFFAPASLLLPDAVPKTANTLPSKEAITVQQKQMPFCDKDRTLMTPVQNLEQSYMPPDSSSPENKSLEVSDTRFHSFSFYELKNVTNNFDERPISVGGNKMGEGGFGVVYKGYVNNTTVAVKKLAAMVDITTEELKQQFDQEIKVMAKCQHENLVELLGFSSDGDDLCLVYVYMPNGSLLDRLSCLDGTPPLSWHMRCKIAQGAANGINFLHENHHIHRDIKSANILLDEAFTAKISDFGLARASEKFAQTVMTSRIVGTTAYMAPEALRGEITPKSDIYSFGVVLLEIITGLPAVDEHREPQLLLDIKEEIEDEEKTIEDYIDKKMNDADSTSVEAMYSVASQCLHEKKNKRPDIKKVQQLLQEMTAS

SMILES | Ki [nM]
CC1(C)Cc2cc(NC(=O)c3cnn4cccnc34)c(N3CC4CC(F)(F)C4C3)cc2O1 (stereo not shown) [Example 199, N-(6-(6,6-difluoro-3-azabicyclo[3.2.0]heptan-3-yl)-2,2-dimethyl-2,3-dihydrobenzofuran-5-yl)pyrazolo[1,5-a]pyrimidine-3-carboxamide] | 170
CC1(C)Cc2cc(NC(=O)c3cnn4cccnc34)c(N3C[C@H]4CCC(F)(F)[C@H]4C3)cc2O1 [Example 200, N-(6-((3aR,6aS)-4,4-difluorohexahydrocyclopenta[c]pyrrol-2(1H)-yl)-2,2-dimethyl-2,3-dihydrobenzofuran-5-yl)pyrazolo[1,5-a]pyrimidine-3-carboxamide] | 22
CC1(C)Cc2cc(NC(=O)c3cnn4cccnc34)c(N3CCCC3CO)cc2O1 (stereo not shown) [Example 201, N-(6-(2-(hydroxymethyl)pyrrolidin-1-yl)-2,2-dimethyl-2,3-dihydrobenzofuran-5-yl)pyrazolo[1,5-a]pyrimidine-3-carboxamide] | 28
CC1(C)Cc2cc(NC(=O)c3cnn4cccnc34)c(N3CCCC(c4ncc[nH]4)C3)cc2O1 (stereo not shown) [Example 202, N-(6-(3-(1H-imidazol-2-yl)piperidin-1-yl)-2,2-dimethyl-2,3-dihydrobenzofuran-5-yl)pyrazolo[1,5-a]pyrimidine-3-carboxamide] | 690
CC1(C)Cc2cc(NC(=O)c3cnn4cccnc34)c(N3C[C@@H](F)[C@@H](F)C3)cc2O1 [Example 203, N-(6-((3R,4S)-3,4-difluoropyrrolidin-1-yl)-2,2-dimethyl-2,3-dihydrobenzofuran-5-yl)pyrazolo[1,5-a]pyrimidine-3-carboxamide] | 15
CC1(C)Cc2cc(NC(=O)c3cnn4cccnc34)c(N3CC4(CCC4(F)F)C3)cc2O1 [Example 204, N-(6-(5,5-difluoro-2-azaspiro[3.3]heptan-2-yl)-2,2-dimethyl-2,3-dihydrobenzofuran-5-yl)pyrazolo[1,5-a]pyrimidine-3-carboxamide] | 730
CN(Cc1ccc(C#N)cc1)c1cc2c(cc1NC(=O)c1cnn3cccnc13)CC(C)(C)O2 [Example 205, N-(6-((4-cyanobenzyl)(methyl)amino)-2,2-dimethyl-2,3-dihydrobenzofuran-5-yl)pyrazolo[1,5-a]pyrimidine-3-carboxamide] | 86
CC1(C)Cc2cc(NC(=O)c3cnn4cccnc34)c(N3CCC(n4ccnc4)CC3)cc2O1 [Example 206, N-(6-(4-(1H-imidazol-1-yl)piperidin-1-yl)-2,2-dimethyl-2,3-dihydrobenzofuran-5-yl)pyrazolo[1,5-a]pyrimidine-3-carboxamide] | 3.4
CC1(C)Cc2cc(NC(=O)c3cnn4cccnc34)c(N3CCCC(F)(F)CC3)cc2O1 [Example 207, N-(6-(4,4-difluoroazepan-1-yl)-2,2-dimethyl-2,3-dihydrobenzofuran-5-yl)pyrazolo[1,5-a]pyrimidine-3-carboxamide] | 17
CC1(C)Cc2cc(NC(=O)c3cnn4cccnc34)c(N3C[C@@H]4[C@H](C3)[C@H]4C(N)=O)cc2O1 [Example 208, N-(6-((1R,5S,6r)-6-carbamoyl-3-azabicyclo[3.1.0]hexan-3-yl)-2,2-dimethyl-2,3-dihydrobenzofuran-5-yl)pyrazolo[1,5-a]pyrimidine-3-carboxamide] | 15
CNC(=O)[C@H]1[C@@H]2CN(c3cc4c(cc3NC(=O)c3cnn5cccnc35)CC(C)(C)O4)C[C@@H]21 [Example 212, N-(2,2-dimethyl-6-((1R,5S,6r)-6-(methylcarbamoyl)-3-azabicyclo[3.1.0]hexan-3-yl)-2,3-dihydrobenzofuran-5-yl)pyrazolo[1,5-a]pyrimidine-3-carboxamide] | 56
CC1(C)Cc2cc(NC(=O)c3cnn4cccnc34)c(N3CCC4(CC3)CNC(=O)C4)cc2O1 [Example 213, N-(2,2-dimethyl-6-(3-oxo-2,8-diazaspiro[4.5]decan-8-yl)-2,3-dihydrobenzofuran-5-yl)pyrazolo[1,5-a]pyrimidine-3-] | 3
CC1(C)Cc2cc(NC(=O)c3cnn4cccnc34)c(N3CCCC3)cc2O1 [Example 214, N-(2,2-dimethyl-6-(pyrrolidin-1-yl)-2,3-dihydrobenzofuran-5-yl)pyrazolo[1,5-a]pyrimidine-3-carboxamide] | 12
CC1(C)Cc2cc(NC(=O)c3cnn4cccnc34)c(N3CC4C(CO)C4C3)cc2O1 (stereo not shown) [Example 215, N-(6-(6-(hydroxymethyl)-3-azabicyclo[3.1.0]hexan-3-yl)-2,2-azabicyclo[3.1.0]dimethyl-2,3-dihydrobenzofuran-5-yl)pyrazolo[1,5-a]pyrimidine-3-carboxamide] | 5.4
CC1(C)Cc2cc(NC(=O)c3cnn4cccnc34)c(N3CCC(C#N)CC3)cc2O1 [Example 216, N-(6-(4-cyanopiperidin-1-yl)-2,2-dimethyl-2,3-dihydrobenzofuran-5-yl)pyrazolo[1,5-a]pyrimidine-3-carboxamide] | 3
CC1(C)Cc2cc(NC(=O)c3cnn4cccnc34)c(N3CCC(F)(F)C3)cc2O1 [Example 217, N-(6-(3,3-difluoropyrrolidin-1-yl)-2,2-dimethyl-2,3-dihydrobenzofuran-5-yl)pyrazolo[1,5-a]pyrimidine-3-carboxamide] | 15

SMILES | Ki [nM]
CC1(C)Cc2cc(NC(=O)c3cnn4cccnc34)c(N3CCC(C(F)(F)F)CC3)cc2O1 [Example 218, N-(2,2-dimethyl-6-(4-(trifluoromethyl)piperidin-1-yl)-2,3-dihydrobenzofuran-5-yl)pyrazolo[1,5-a]pyrimidine-3-carboxamide] | 17
CC(C)C(=O)N1CCN(c2cc3c(cc2NC(=O)c2cnn4cccnc24)CC(C)(C)O3)CC1 [Example 219, N-(6-(4-isobutyrylpiperazin-1-yl)-2,2-dimethyl-2,3-dihydrobenzofuran-5-yl)pyrazolo[1,5-a]pyrimidine-3-carboxamide] | 82
CC(=O)N1CCCN(c2cc3c(cc2NC(=O)c2cnn4cccnc24)CC(C)(C)O3)CC1 [Example 220, N-(6-(4-acetyl-1,4-diazepan-1-yl)-2,2-dimethyl-2,3-dihydrobenzofuran-5-yl)pyrazolo[1,5-a]pyrimidine-3-carboxamide] | 75
CN1CCN(c2cc3c(cc2NC(=O)c2cnn4cccnc24)CC(C)(C)O3)CC(O)C1 (stereo not shown) [Example 224, N-[6-(6-hydroxy-4-methyl-1,4-diazepan-1-yl)-2,2-dimethyl-3H-benzofuran-5-yl]pyrazolo[1,5-a]pyrimidine-3-carboxamide] | 330
CC(C)NC(=O)CN1CCN(c2cc3c(cc2NC(=O)c2cnn4cccnc24)CC(C)(C)O3)CC1 [Example 225, N-(6-(4-(2-(Isopropylamino)-2-oxoethyl)piperazin-1-yl)-2,2-dimethyl-2,3-dihydrobenzofuran-5-yl)pyrazolo[1,5-a]pyrimidine-3-carboxamide] | 45
CC1(C)Cc2cc(NC(=O)c3cnn4cccnc34)c(N3CCN(C(C)(C)C(N)=O)CC3)cc2O1 [Example 226, N-(6-(4-(1-Amino-2-methyl-1-oxopropan-2-yl)piperazin-1-yl)-2,2-dimethyl-2,3-dihydrobenzofuran-5-yl)pyrazolo[1,5-a]pyrimidine-3-carboxamide] | 6
C[C@@H]1CN(c2cc3c(cc2NC(=O)c2cnn4cccnc24)CC(C)(C)O3)C[C@H](C)N1CC(N)=O [Example 227, N-(6-((3R,5S)-4-(2-Amino-2-oxoethyl)-3,5-dimethylpiperazin-1-yl)-2,2-dimethyl-2,3-dihydrobenzofuran-5-yl)pyrazolo[1,5-a]pyrimidine-3-carboxamide] | 490
CC1(C)Cc2cc(NC(=O)c3cnn4cccnc34)c(N3CCN(CC(=O)N4CCOCC4)CC3)cc2O1 [Example 228, N-(2,2-Dimethyl-6-(4-(2-morpholino-2-oxoethyl)piperazin-1-yl)-2,3-dihydrobenzofuran-5-yl)pyrazolo[1,5-a]pyrimidine-3-carboxamide] | 48
Cc1nccc(C2CCN(c3cc4c(cc3NC(=O)c3cnn5cccnc35)CC(C)(C)O4)C2)n1 (stereo not shown) [Example 229, N-(2,2-Dimethyl-6-(3-(2-methylpyrimidin-4-yl)pyrrolidin-1-yl)-2,3-dihydrobenzofuran-5-yl)pyrazolo[1,5-a]pyrimidine-3-carboxamide] | 260
CC1(C)Cc2cc(NC(=O)c3cnn4cccnc34)c(N3CCN(CC4CCCO4)CC3)cc2O1 (stereo not shown) [Example 230, N-(2,2-Dimethyl-6-(4-((tetrahydrofuran-2-yl)methyl)piperazin-1-yl)-2,3-dihydrobenzofuran-5-yl)pyrazolo[1,5-a]pyrimidine-3-carboxamide] | 18
CC1(C)Cc2cc(NC(=O)c3cnn4cccnc34)c(N3CCN(CCn4ccnc4)CC3)cc2O1 [Example 231, N-(6-(4-(2-(1H-Imidazo1-1-yl)ethyl)piperazin-1-yl)-2,2-dimethyl-2,3-dihydrobenzofuran-5-yl)pyrazolo[1,5-a]pyrimidine-3-carboxamide] | 3
CN(C)C(=O)CN1CCN(c2cc3c(cc2NC(=O)c2cnn4cccnc24)CC(C)(C)O3)CC1 [Example 232, N-(6-(4-(2-(Dimethylamino)-2-oxoethyl)piperazin-1-yl)-2,2-dimethyl-2,3-dihydrobenzofuran-5-yl)pyrazolo[1,5-a]pyrimidine-3-carboxamide] | 34
CC1(C)Cc2cc(NC(=O)c3cnn4cccnc34)c(N3CCn4ccnc4C3)cc2O1 [Example 233] | 100
CC1(C)Cc2cc(NC(=O)c3cnn4cccnc34)c(N3CC4CCOC4C3)cc2O1 (stereo not shown) [Example 234, N-(6-(Hexahydro-5H-furo[2,3-c]pyrrol-5-yl)-2,2-dimethyl-2,3-dihydrobenzofuran-5-yl)pyrazolo[1,5-a]pyrimidine-3-carboxamide] | 33
CC1(C)Cc2cc(NC(=O)c3cnn4cccnc34)c(N3CCC(c4nnco4)CC3)cc2O1 [Example 235, N-(6-(4-(1,3,4-Oxadiazol-2-yl)piperidin-1-yl)-2,2-dimethyl-2,3-dihydrobenzofuran-5-yl)pyrazolo[1,5-a]pyrimidine-3-carboxamide] | 4
